The results in this text go back to US9650339B2, “Inhibitors of histone demethylases” (Gilead Sciences, Inc., priority 2013, dated 2017).

For one assay, the system named is H3K4me3 mark. The assay can be described thus: Histone lysine demethylase immunofluorescence assay, non-transfected U2OS cells. The class given is cell-based. As to conditions: Homo sapiens, staining of the H3K4me3 mark, 20 hours incubation with compound. The gist of the method:
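Non-transfected U2OS cells incubated with compounds 20 h in DMEM/5% FBS. Fixed cells immunostained for H3K4me3 with Hoechst counterstain and imaged by high-throughput microscopy. IC50 based on average cellular H3K4me3 staining.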

The subject of the next assay is MCF7 cells. The assay is described as follows: Cell proliferation assay MCF7. In kind it is cell-based. The note with it: MCF7 human breast cancer cells; 120 hours; ATPlite 1 Step. The gist of the method: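 After 120 h of compound exposure (duplicates, DMSO at most 0.5%) in DMEM GlutaMAX with 10% FBS, ATPlite 1 Step luminescence measured cellular ATP. Compound was added 24 h after seeding, at a density chosen for ~90% confluence at the end.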
On the technique in general: Cellular ATP, detected with luciferase, serves as a proxy for viable cell number.

The target in another assay is T1, KDM5B (PLU-1) (Homo sapiens, UniProt Q9UGL1).
T1 sequence (Q9UGL1 1-809): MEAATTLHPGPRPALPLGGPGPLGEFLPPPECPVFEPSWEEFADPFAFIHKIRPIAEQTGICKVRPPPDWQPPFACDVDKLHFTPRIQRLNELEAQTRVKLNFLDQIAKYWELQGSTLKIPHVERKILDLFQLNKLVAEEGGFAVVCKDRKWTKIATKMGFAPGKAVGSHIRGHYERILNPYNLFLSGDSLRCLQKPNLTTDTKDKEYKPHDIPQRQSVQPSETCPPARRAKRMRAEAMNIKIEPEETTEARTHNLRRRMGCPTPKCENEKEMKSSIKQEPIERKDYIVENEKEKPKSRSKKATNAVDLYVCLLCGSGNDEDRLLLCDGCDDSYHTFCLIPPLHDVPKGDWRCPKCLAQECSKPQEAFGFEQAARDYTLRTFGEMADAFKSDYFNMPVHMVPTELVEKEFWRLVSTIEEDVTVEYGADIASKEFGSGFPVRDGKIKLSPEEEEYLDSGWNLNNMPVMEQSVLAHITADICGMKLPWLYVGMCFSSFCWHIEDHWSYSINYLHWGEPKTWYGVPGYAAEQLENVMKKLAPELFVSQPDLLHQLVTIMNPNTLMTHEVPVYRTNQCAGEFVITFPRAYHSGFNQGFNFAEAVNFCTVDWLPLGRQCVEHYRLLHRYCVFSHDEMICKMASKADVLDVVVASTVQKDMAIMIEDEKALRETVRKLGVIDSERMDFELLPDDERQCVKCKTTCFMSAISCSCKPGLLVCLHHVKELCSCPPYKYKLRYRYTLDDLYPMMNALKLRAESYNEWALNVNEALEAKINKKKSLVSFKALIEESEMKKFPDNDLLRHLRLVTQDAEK
The assay can be described thus: Histone lysine demethylase AlphaLISA assay, KDM5B. The class given is biochemical. The note with it: read-out: KDM5B HDME Inhibition IC50. The essentials:
(§1)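 Each enzyme was pre-incubated 10 min in buffer, then 10 min with compound in 3% DMSO solution. The reaction started with biotinylated histone H3 peptide substrate plus 25 μM L-ascorbate and 10 μM α-KG at room temperature. Detection used AlphaLISA acceptor beads, then streptavidin donor beads, in the dark.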

In another assay the target is T2, KDM3B (JMJD1B) (Homo sapiens, UniProt Q7LBC6).
T2 construct: 842-1761; host or cells: Bac (baculovirus system)
T2 sequence (Q7LBC6 842-1761): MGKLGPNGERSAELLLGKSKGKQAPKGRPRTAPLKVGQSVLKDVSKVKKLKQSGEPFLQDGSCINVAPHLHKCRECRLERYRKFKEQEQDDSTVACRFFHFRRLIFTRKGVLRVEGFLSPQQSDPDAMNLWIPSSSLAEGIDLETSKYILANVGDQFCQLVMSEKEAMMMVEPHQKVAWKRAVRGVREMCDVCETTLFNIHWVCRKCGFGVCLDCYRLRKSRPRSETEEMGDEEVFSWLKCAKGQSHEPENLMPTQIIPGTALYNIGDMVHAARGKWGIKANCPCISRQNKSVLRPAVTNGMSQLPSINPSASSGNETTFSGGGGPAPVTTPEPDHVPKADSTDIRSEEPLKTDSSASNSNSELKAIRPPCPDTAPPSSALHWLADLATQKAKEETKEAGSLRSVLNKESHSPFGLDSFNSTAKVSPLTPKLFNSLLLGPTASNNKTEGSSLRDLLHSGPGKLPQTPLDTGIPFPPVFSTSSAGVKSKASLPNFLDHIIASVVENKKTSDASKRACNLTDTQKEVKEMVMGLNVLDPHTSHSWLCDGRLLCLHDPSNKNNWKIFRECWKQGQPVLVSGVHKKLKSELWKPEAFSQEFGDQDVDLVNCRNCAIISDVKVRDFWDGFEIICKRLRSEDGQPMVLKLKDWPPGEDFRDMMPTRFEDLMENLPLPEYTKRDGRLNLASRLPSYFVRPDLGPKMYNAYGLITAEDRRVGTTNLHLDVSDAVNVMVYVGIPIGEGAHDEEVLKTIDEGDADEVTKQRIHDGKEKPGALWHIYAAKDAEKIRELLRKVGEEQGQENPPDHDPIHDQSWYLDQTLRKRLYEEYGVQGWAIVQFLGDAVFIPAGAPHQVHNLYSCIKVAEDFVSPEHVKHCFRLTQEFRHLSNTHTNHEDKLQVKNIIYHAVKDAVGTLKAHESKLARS
The assay is described as follows: Histone lysine demethylase AlphaLISA assay, KDM3B. The class given is biochemical. The note with it: read-out: KDM3B HDME Inhibition IC50. The gist of the method:
as §1
Background: Bead proximity is the source of the signal in Alpha formats.

What is called IC50 is the concentration at which inhibition is half-maximal. For orientation: EC50 means the concentration giving half of the maximal effect.

SMILES strings stand for the structures.

Consider `CCN(CC)CCCCNCc1cc(CNC(=O)C(F)(F)F)ccn1` [Compound 1, N-{[2-({[4-(diethylamino)butyl]-amino}methyl)pyridin-4-yl]methyl}-2,2,2-trifluoroacetamide], for which the IC50 in the assay with H3K4me3 mark is below 0.25 µM; at KDM5B (PLU-1), 0.25 to 2.5 µM; on KDM3B (JMJD1B), above 2.5 µM. This compound registered an EC50 with MCF7 cells below 0.25 µM.
